According to US20260297042A1, “BIARYLAMIDE DERIVATIVES AND THEIR USE AS PKMYT1 INHIBITORS” (CANCER RESEARCH TECHNOLOGY LIMITED, priority 2023, published 2026):
Where a name gives a salt, the structure may show the parent alone.

Columns and labels:
Human PKMYT1 = molecular target: T1, Human PKMYT1 (Homo sapiens, UniProt Q99640); experiment: PKMYT1 biochemical ADP-Glo enzymatic assay; details: ADP-Glo
T1 construct: Human PKMYT1 75-362 was cloned as a TEV cleavable 6xHis fusion; 6xHis (TEV cleavable) (cleaved yes); made in house; host or cells: bacterial cells
T1 sequence (Q99640 75-362): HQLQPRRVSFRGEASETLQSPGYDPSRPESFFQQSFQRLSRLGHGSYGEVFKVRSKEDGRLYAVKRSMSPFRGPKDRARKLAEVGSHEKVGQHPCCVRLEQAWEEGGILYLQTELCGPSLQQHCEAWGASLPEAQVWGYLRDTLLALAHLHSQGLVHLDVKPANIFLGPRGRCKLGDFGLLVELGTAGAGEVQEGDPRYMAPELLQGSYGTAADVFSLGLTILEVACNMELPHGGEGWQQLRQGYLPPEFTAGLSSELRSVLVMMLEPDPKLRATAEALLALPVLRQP
Method in brief: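 PKMYT1 75-362 (His-cleaved, bacterial) 15 nM; ATP 500 µM; HEPES pH 7.5, MgCl2, EGTA, Brij-35, 1% DMSO; 60 min, 26 °C; ADP-Glo Max luminescence; 10-pt 3-fold titration → IC50; replicates within 3-fold, r2 >0.9.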

WEE1 = molecular target: T2, WEE1 (Homo sapiens, UniProt P30291); experiment: Selectivity versus WEE1 assay (ADP-Glo enzymatic assay); format: biochemical; details: for IC50: ADP-Glo; for PKMYT1 vs. WEE1 selectivity: fold difference in selectivity for PKMYT1 over WEE1
T2 construct: purchased Thermo Fisher PR7373A
T2 sequence (P30291 whole entry): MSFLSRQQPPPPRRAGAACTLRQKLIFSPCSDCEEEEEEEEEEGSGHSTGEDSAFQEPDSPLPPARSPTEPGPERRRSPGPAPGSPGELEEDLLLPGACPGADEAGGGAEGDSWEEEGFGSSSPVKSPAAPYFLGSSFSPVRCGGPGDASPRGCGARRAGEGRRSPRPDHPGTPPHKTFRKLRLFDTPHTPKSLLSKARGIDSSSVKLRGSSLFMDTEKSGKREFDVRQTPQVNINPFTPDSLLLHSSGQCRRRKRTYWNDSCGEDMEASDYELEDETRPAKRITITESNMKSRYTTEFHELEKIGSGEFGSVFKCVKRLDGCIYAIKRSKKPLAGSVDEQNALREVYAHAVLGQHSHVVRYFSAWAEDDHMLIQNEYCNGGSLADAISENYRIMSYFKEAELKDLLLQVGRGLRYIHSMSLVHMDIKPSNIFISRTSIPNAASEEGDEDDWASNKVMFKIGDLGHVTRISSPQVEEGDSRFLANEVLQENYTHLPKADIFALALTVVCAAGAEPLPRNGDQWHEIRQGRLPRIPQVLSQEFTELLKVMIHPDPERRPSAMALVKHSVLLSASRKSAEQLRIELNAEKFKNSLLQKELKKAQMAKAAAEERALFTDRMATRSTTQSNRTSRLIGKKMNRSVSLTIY
Method in brief: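 15 nM WEE1, 30 µM ATP, 50 mM HEPES pH 7.5, 10 mM MgCl2, 1 mM EGTA, 0.01% Brij-35, 1% DMSO; 60 min, 26° C; ADP-Glo luminescence; IC50 from curve fit, replicates within 3-fold, r2 >0.9.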

[1] = 15 nM PKMYT1 kinase domain, 500 µM ATP, 60 minutes at 26° C., banded
[2] = 15 nM WEE1, 60 minutes at 26° C., banded
[3] = banded, ">N" = at least in this band but could be higher
[4] = PKMYT1 kinase domain 15 nM, banded values

Row | IC50 (Human PKMYT1; [1]) [nM] | IC50 (WEE1; [2]) [nM] | PKMYT1 vs. WEE1 selectivity (WEE1; [3]) | IC50 (Human PKMYT1; [4]) [nM] | IC50 (WEE1; WEE1 15 nM, banded values) [nM] | PKMYT1 vs. WEE1 selectivity (WEE1; banded) | SMILES
1 | < 50 | 50 to 1000 | W (10-<100 fold) |  |  |  | Cc1cn(C2CN(C(=O)OC(C)(C)C)C2)nc1Nc1ncc(C(=O)Nc2c(C)ccc(O)c2C)s1 [BAA-272, tert-butyl 3-(3-((5-((3-hydroxy-2,6-dimethylphenyl)carbamoyl)thiazol-2-yl)amino)-4-methyl-1H-pyrazol-1-yl)azetidine-1-carboxylate]
2 | 50 to 1000 | > 11000 | >Y (1000-5000 fold) |  |  |  | Cc1ccc(O)c(C)c1NC(=O)c1cnc(Nc2ccn([C@@H]3CCN(C(=O)OC(C)(C)C)C3)n2)s1 [BAA-043, tert-Butyl(3R)-3-[3-[[5-[(3-hydroxy-2.6-dimethyl-phenyl)carbamoyl]thiazol-2-yl]amino]pyrazol-1-yl]pyrrolidine-1-carboxylate]
3 | 50 to 1000 | 1000 to 11000 | X (100-<1000 fold) |  |  |  | Cc1ccc(O)c(C)c1NC(=O)c1cnc(Nc2cc(C)n(C)n2)s1 [BAA-122, 2-[(1,5-dimethylpyrazol-3-yl)amino]-N-(3-hydroxy-2,6-dimethyl-phenyl)thiazole-5-carboxamide]
4 |  |  |  | 50 to 1000 | > 11000 | X (100-<1000 fold) | Cc1ccc(O)c(C)c1NC(=O)c1cnc(Nc2n[nH]c3ccccc23)s1 [BAA-455, 2-((1H-indazol-3-yl)amino)-N-(3-hydroxy-2,6-dimethylphenyl)thiazole-5-carboxamide]
5 | 50 to 1000 | > 11000 | >X (100-<1000 fold) |  |  |  | Cc1ccc(O)c(C)c1NC(=O)c1cnc(Nc2ccn(CCCN3CCOCC3)n2)s1 [BAA-101]
6 | 50 to 1000 | > 11000 | X (100-<1000 fold) |  |  |  | Cc1ccc(O)c(C)c1NC(=O)c1cnc(Nc2ccn(CC(F)(F)F)n2)s1 [BAA-019, N-(3-hydroxy-2,6-dimethyl-phenyl)-2-[[1-(2,2,2-trifluoroethyl)pyrazol-3-yl]amino]thiazole-5-carboxamide]
7 | < 50 | 50 to 1000 | W (10-<100 fold) |  |  |  | Cc1cn(C2CNC2)nc1Nc1ncc(C(=O)Nc2c(C)ccc(O)c2C)s1 [BAA-273, 2-((1-(azetidin-3-yl)-4-methyl-1H-pyrazol-3-yl)amino)-N-(3-hydroxy-2,6-dimethylphenyl)thiazole-5-carboxamide hydrochloride]
8 |  |  |  | < 50 | > 11000 | X (100-<1000 fold) | Cc1cn(C(C)C(=O)N2CCN(C)CC2)nc1Nc1ncc(C(=O)Nc2c(C)ccc(O)c2C)s1 (stereo not drawn) [BAA-500, N-(3-hydroxy-2,6-dimethylphenyl)-2-((4-methyl-1-(1-(4-methylpiperazin-1-yl)-1-oxopropan-2-yl)-1H-pyrazol-3-yl)amino)thiazole-5-carboxamide]
9 | 50 to 1000 | > 11000 | X (100-<1000 fold) |  |  |  | Cc1ccc(O)c(C)c1NC(=O)c1cnc(Nc2nn(-c3ccc(C(F)(F)F)nc3)cc2Cl)s1 [BAA-382, 2-((4-chloro-1-(6-(trifluoromethyl)pyridin-3-yl)-1H-pyrazol-3-yl)amino)-N-(3-hydroxy-2,6-dimethylphenyl) thiazole-5-carboxamide]
10 | < 50 | > 11000 | X (100-<1000 fold) |  |  |  | Cc1ccc(O)c(C)c1NC(=O)c1cnc(Nc2ccn(CC(=O)N3CCNC(=O)C3)n2)s1 [BAA-150]
11 | 50 to 1000 | > 11000 | >X (100-<1000 fold) |  |  |  | Cc1ccc(O)c(C)c1NC(=O)c1cnc(Nc2ccn([C@@H]3CCN(C(=O)CC4CCNCC4)C3)n2)s1 [BAA-107, N-(3-Hydroxy-2,6-dimethyl-phenyl)-2-[[1-[(3R)-1-[2-(4-piperidyl)acetyl]pyrrolidin-3-yl]pyrazol-3-yl]amino]thiazole-5-carboxamide]
